Test results from US8563729B2, “Thienopyridone derivatives as AMP-activated protein kinase (AMPK) activators” (Merck Patent GmbH, priority 2008, dated 2013).

Key:
[1] = target: T1, AMPK protein (recombinant α1β1γ2) (Homo sapiens, UniProt Q13131+Q9Y478); assay: AMPK enzymatic activity (Delfia, AMARA peptide substrate); format: biochemical; details: compound 30 μM vs AMP 30 μM; 125 μM ATP; ratio 90% or higher = direct activator
T1 construct: made in house; host or cells: E. coli
Description: The following biological test allows the determination of the efficacy of such compounds of formula (I) onto AMPK protein (recombinant α1β1γ2).
Human recombinant AMPK enzyme was expressed in E. Coli and was reactivated in vitro by LKB1 prior to enzyme activity determination.
AMPK enzyme activities were assayed by using A Delfia technology. AMPK enzyme activities were carried out in microtiter plates (50 mM Hepes buffer, pH 7.4 with 125 μM ATP respectively) in the presence of a synthetic peptide substrate (AMARAASAAALARRR, the “AMARA” peptide) and activators in serial dilutions. Reactions were initiated by the addition of AMPK (50-100 ng). Following mixing, the plates were incubated for 30 min at room temperature. Enzyme activity was assayed by using an anti-phosphoserine antibody to measure the quantity of phosphate incorporated into the AMARAA.
(§1) N°: Number of the molecule
Activity: Ratio between the % of control (basal activity) of compound of formula (I) at 30 μM and the % of control (basal activity) of AMP (natural substrate) at 30 μM.
Compounds of formula (I) in the table II are considered as direct activator of AMPK if the ratio is 90% or higher.

H-2 Kb cells = assay: Glucose uptake in H-2 Kb cells (in vitro cellular test); format: cell-based, mouse; details: H-2 Kb cells differentiated in muscle, 4 hours incubation, 2-deoxy-D-[1,2 3H] glucose uptake 10 min
Description: Glucose Uptake in H-2 Kb Cells (In Vitro Cellular Test)
The following cellular test allows the determination of the effect of AMPK activators such as compounds of formula (I) onto glucose uptake in a muscle cellular model.
H-1-2 Kb cells derived from heterozygous H-2 Kb tsA58 transgenic mouse were grown in 24-well in plates coated with matrigel and were cultured at 33° C. for 4 days under permissive conditions, as described previously by Fryer et al. (Diabetes 49 (12): 1978, 2000).
For differentiation in muscle, cells were switched to non-permissive culture conditions (37° C. in the absence of interferon-γ). After 3 days, cells were incubated for 4 hours in DMEM 1 g/l glucose culture medium containing different concentrations of the tested molecules. Then glucose uptake was measured by incubating the cells for 10 min with radiolabelled 2-deoxy-D-[1,2 ^3H] glucose. Glucose uptake was terminated by rapidly washing the plates 2 times with ice-cold NaCl 0.9%. The cells were then solubilized in 0.1N NaOH for 30 min. Radioactivity was determined by liquid scintillation counting.
as §1
Activity (table III): Concentration of compound (I) for a glucose uptake equal or higher to glucose uptake induced by insulin (170 nM)
^++ or **concentration of compound (I) ≦10 micro Molar
^+ or *concentration of compound (I) >10 micro Molar

T1 sequence (Q13131 whole entry): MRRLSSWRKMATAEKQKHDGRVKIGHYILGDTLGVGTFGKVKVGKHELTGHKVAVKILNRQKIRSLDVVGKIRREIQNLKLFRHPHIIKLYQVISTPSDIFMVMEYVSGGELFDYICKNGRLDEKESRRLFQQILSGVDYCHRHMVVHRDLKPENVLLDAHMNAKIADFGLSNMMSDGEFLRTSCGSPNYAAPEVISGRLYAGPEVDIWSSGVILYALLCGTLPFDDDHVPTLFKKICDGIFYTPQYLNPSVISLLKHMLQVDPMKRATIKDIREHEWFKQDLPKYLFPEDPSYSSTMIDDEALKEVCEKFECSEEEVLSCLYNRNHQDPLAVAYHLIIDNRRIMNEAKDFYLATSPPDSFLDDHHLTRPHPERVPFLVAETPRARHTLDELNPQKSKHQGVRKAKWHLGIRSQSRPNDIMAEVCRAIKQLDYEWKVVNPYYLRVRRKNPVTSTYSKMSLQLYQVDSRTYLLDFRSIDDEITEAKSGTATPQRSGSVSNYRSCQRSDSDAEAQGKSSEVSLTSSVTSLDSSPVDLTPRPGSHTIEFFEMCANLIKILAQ
T1 sequence (Q9Y478 whole entry): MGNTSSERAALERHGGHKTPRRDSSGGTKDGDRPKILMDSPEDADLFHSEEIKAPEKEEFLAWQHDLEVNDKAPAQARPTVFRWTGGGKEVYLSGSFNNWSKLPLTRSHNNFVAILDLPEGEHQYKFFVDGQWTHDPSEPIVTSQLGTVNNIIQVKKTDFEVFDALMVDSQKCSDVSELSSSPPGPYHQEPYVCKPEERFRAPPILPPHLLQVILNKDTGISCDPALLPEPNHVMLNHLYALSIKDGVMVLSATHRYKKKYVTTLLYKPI
T1 sequence (Q9UGJ0 whole entry partner): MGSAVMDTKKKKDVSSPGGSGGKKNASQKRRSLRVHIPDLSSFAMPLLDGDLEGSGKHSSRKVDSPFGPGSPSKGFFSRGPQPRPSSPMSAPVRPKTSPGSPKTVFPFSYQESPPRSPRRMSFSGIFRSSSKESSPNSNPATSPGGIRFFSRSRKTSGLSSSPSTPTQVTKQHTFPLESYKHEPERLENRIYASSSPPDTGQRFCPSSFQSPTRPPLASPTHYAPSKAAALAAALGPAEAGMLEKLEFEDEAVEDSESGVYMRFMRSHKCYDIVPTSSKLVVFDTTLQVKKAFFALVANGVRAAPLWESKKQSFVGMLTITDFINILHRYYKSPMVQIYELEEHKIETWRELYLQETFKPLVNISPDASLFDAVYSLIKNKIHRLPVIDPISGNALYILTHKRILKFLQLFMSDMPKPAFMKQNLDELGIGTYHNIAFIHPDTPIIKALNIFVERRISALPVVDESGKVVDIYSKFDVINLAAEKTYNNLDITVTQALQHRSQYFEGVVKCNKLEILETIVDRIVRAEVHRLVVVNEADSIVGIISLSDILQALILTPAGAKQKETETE

activity: Ratio between the % of control (basal activity) of compound of formula (I) at 30 μM and the % of control (basal activity) of AMP at 30 μM [1] | Structure (SMILES) | Activity (table III): Concentration of compound (I) for a glucose uptake equal or higher to glucose uptake induced by insulin (170 nM) (H-2 Kb cells)
410% | N#Cc1sc2[nH]c(=O)c(-c3ccccc3)c(O)c2c1-c1ccccc1 [Compound 9, 2-cyano-3,5-diphenyl-4-hydroxy-6,7-dihydro-thieno[2,3-]pyridin-6-one] | * (^+ or *concentration of compound (I) >10 micro Molar)
96% | Cc1sc2[nH]c(=O)c(-c3ccccc3)c(O)c2c1-c1ccccc1 [Compound 10] | * (^+ or *concentration of compound (I) >10 micro Molar)
126% | COc1ccc(-c2c(O)c3c(-c4ccccc4)c(C)sc3[nH]c2=O)cc1 [Compound 13] | * (^+ or *concentration of compound (I) >10 micro Molar)
116% | Cc1sc2[nH]c(=O)c(-c3ccc(O)cc3)c(O)c2c1-c1ccccc1 [Compound 14] | * (^+ or *concentration of compound (I) >10 micro Molar)
181% | COc1cccc(-c2c(O)c3c(-c4ccccc4)c(C)sc3[nH]c2=O)c1 [Compound 15] | * (^+ or *concentration of compound (I) >10 micro Molar)
96% | COc1ccc(-c2c(O)c3c(-c4ccccc4)csc3[nH]c2=O)cc1 [Compound 19] | * (^+ or *concentration of compound (I) >10 micro Molar)
121% | CN(C)c1ccc(-c2c(O)c3c(-c4ccccc4)csc3[nH]c2=O)cc1 [Compound 22] | ** (^++ or **concentration of compound (I) ≦10 micro Molar)
202% | COc1cccc(-c2c(O)c3c(-c4ccccc4)csc3[nH]c2=O)c1 [Compound 23] | * (^+ or *concentration of compound (I) >10 micro Molar)
128% | O=c1[nH]c2scc(-c3ccc(Cl)cc3)c2c(O)c1-c1ccccc1 [Compound 26] | * (^+ or *concentration of compound (I) >10 micro Molar)
114% | O=c1[nH]c2scc(-c3ccc(F)cc3)c2c(O)c1-c1ccccc1 [Compound 27] | * (^+ or *concentration of compound (I) >10 micro Molar)
201% | O=c1[nH]c2scc(-c3ccc4ccccc4c3)c2c(O)c1-c1ccccc1 [Compound 33] | * (^+ or *concentration of compound (I) >10 micro Molar)
625% | O=c1[nH]c2scc(-c3ccc4ccccc4c3O)c2c(O)c1-c1ccccc1 [Compound 34] | * (^+ or *concentration of compound (I) >10 micro Molar)
126% | Cc1ccc(-c2csc3[nH]c(=O)c(-c4ccccc4)c(O)c23)cc1 [Compound 35] | ** (^++ or **concentration of compound (I) ≦10 micro Molar)
121% | O=c1[nH]c2scc(-c3ccc(C(F)(F)F)cc3)c2c(O)c1-c1ccccc1 [Compound 36] | * (^+ or *concentration of compound (I) >10 micro Molar)
117% | COc1cccc(-c2csc3[nH]c(=O)c(-c4ccccc4)c(O)c23)c1 [Compound 47] | * (^+ or *concentration of compound (I) >10 micro Molar)
115% | COc1ccc(-c2csc3[nH]c(=O)c(-c4ccccc4)c(O)c23)c(F)c1 [Compound 63] | * (^+ or *concentration of compound (I) >10 micro Molar)
403% | Cc1ccc(-c2csc3[nH]c(=O)c(-c4ccccc4)c(O)c23)c(O)c1 [Compound 83, 4-hydroxy-3-(2-hydroxy-4-methylphenyl)-5-phenyl-6,7-dihydro-thieno[2,3-b]pyridin-6-one] | * (^+ or *concentration of compound (I) >10 micro Molar)
– | Cc1ccc(-c2c(Cl)sc3[nH]c(=O)c(-c4cccc(C#N)c4)c(O)c23)c(O)c1 [Compound 101] | * (^+ or *concentration of compound (I) >10 micro Molar)
– | Cc1ccc(-c2c(Cl)sc3[nH]c(=O)c(-c4ccccc4)c(O)c23)cc1O [Compound 102] | ** (^++ or **concentration of compound (I) ≦10 micro Molar)
– | COc1cc(-c2c(Cl)sc3[nH]c(=O)c(-c4ccccc4)c(O)c23)ccc1C [Compound 103] | * (^+ or *concentration of compound (I) >10 micro Molar)
103% | NC(=NO)c1cccc(-c2c(O)c3c(-c4ccccc4)c(Cl)sc3[nH]c2=O)c1 [Compound 146] | –
130% | CNC(=O)c1ccc(-c2c(O)c3c(-c4ccccc4)c(Cl)sc3[nH]c2=O)cc1 [Compound 150] | –
134% | NC(=O)c1ccc(-c2c(O)c3c(-c4ccccc4)c(Cl)sc3[nH]c2=O)cc1 [Compound 151] | –
111% | O=C(O)c1ccc(-c2c(O)c3c(-c4ccccc4)c(Cl)sc3[nH]c2=O)cc1 [Compound 153] | –
131% | CS(=O)(=O)c1ccc(-c2c(O)c3c(-c4ccccc4)c(Cl)sc3[nH]c2=O)cc1 [Compound 154] | –
95% | NC(=NO)c1ccc(-c2c(O)c3c(-c4ccccc4)c(Cl)sc3[nH]c2=O)cc1 [Compound 155] | –
110% | O=c1[nH]c2sc(Cl)c(-c3ccccc3)c2c(O)c1-c1ccccc1OCc1ccccc1 [Compound 158] | –
164% | O=c1[nH]c2sc(Cl)c(-c3ccccc3)c2c(O)c1-c1ccccc1O [Compound 159] | –
251% | O=c1[nH]c2sc(Cl)c(-c3ccc(F)cc3)c2c(O)c1-c1ccc(F)cc1 [Compound 203] | –
207% | Cc1ccc(-c2c(O)c3c(-c4ccc(F)cc4O)c(Cl)sc3[nH]c2=O)cc1 [Compound 214] | –

Structure (SMILES) | activity: Ratio between the % of control (basal activity) of compound of formula (I) at 30 μM and the % of control (basal activity) of AMP at 30 μM [1] | Activity (table III): Concentration of compound (I) for a glucose uptake equal or higher to glucose uptake induced by insulin (170 nM) (H-2 Kb cells)
O=c1[nH]c2scc(-c3ccccc3)c2c(O)c1-c1ccc(O)cc1 [Compound 20] | 99% | * (^+ or *concentration of compound (I) >10 micro Molar)
